# Measurements reported in ChEMBL document CHEMBL4613237, “A novel phytosterol isolated from Datura inoxia, RinoxiaB is a potential cure colon cancer agent by targeting BAX/Bcl2 pathway” (Bioorg Med Chem, 2020).
# Calls of active or inactive are those of the source. No cut-off for these calls is given here.
# What was measured:
# HCT-15 [1] = test: Induction of apoptosis in human HCT15 cells assessed as viable cells at 4 uM after 24 hrs by annexin V-FITC and propidium iodide staining based flow cytometry (reference value: 99.93%); assay type: functional; settings: HCT-15, 24 h, read-out: Activity
# HCT-15 [2] = test: Induction of morphological changes in human HCT15 cells assessed as lack of colony forming ability at 4 to 10 uM after 24 hrs by inverted light microscopic analysis; assay type: functional, cell-based
# HCT-15 [3] = test: Induction of apoptosis in human HCT15 cells assessed as late apoptotic cells at 4 uM after 24 hrs by annexin V-FITC and propidium iodide staining based flow cytometry (reference value: 0%); assay type: functional
# HCT-15 [4] = test: Induction of DNA damage in human HCT15 cells assessed as olive tail moment at 10 uM by neutral comet assay (reference value: 0.19); assay type: functional
# HCT-15 [5] = test: Induction of apoptosis in human HCT15 cells assessed as early apoptotic cells at 10 uM after 24 hrs by annexin V-FITC and propidium iodide staining based flow cytometry (reference value: 0%); assay type: functional
# HCT-15 [6] = test: Antiproliferative activity against human HCT15 cells at 4 uM after 24 hrs by MTT assay relative to control; assay type: functional; settings: HCT-15, 24 h
# HCT-15 [7] = test: Induction of apoptosis in human HCT15 cells assessed as upregulation of p21 protein expression after 24 hrs by Western blot analysis; assay type: functional, cell-based
# HCT-15 [8] = test: Induction of apoptosis in human HCT15 cells assessed as necrotic cells at 4 uM after 24 hrs by annexin V-FITC and propidium iodide staining based flow cytometry (reference value: 0.07%); assay type: functional
# HCT-15 [9] = test: Induction of DNA damage in human HCT15 cells assessed as head DNA at 10 uM by neutral comet assay relative to control (reference value: 99.27%); assay type: functional
# HCT-15 [10] = test: Induction of cell cycle arrest in human HCT15 cells assessed as accumulation of cells at G2/M phase at 4 uM after 24 hrs by propidium iodide staining based flow cytometry (reference value: 13.77%); assay type: functional
# HCT-15 [11] = test: Induction of apoptosis in human HCT15 cells assessed as increase in bax protein expression at 4 to 10 uM after 24 hrs by Western blot analysis; assay type: functional, cell-based
# HCT-15 [12] = test: Induction of apoptosis in human HCT15 cells assessed as increase in cytochrome c protein expression at 4 to 10 uM after 24 hrs by Western blot analysis; assay type: functional, cell-based
# HCT-15 [13] = test: Induction of apoptosis in human HCT15 cells assessed as viable cells at 10 uM after 24 hrs by annexin V-FITC and propidium iodide staining based flow cytometry (reference value: 99.93%); assay type: functional; settings: HCT-15, 24 h, read-out: Activity
# HCT-15 [14] = test: Induction of DNA damage in human HCT15 cells assessed as head length at 4 uM by neutral comet assay (reference value: 53 pixel); assay type: functional
# HCT-15 [15] = test: Induction of DNA damage in human HCT15 cells assessed as tail moment at 4 uM by neutral comet assay (reference value: 0.02); assay type: functional
# HCT-15 [16] = test: Induction of morphological changes in human HCT15 cells assessed as cell shrinkage after 24 hrs by inverted light microscopic analysis; assay type: functional, cell-based
# HCT-15 [17] = test: Induction of apoptosis in human HCT15 cells assessed as upregulation of p53 protein expression after 24 hrs by Western blot analysis; assay type: functional, cell-based
# HCT-15 [18] = test: Induction of apoptosis in human HCT15 cells assessed as late apoptotic cells at 10 uM after 24 hrs by annexin V-FITC and propidium iodide staining based flow cytometry (reference value: 0%); assay type: functional
# HCT-15 [19] = test: Induction of DNA damage in human HCT15 cells assessed as olive tail moment at 4 uM by neutral comet assay (reference value: 0.19); assay type: functional
# HCT-15 [20] = test: Induction of cell cycle arrest in human HCT15 cells assessed as accumulation of cells at S phase at 4 uM after 24 hrs by propidium iodide staining based flow cytometry (reference value: 8.73%); assay type: functional
# HCT-15 [21] = test: Induction of apoptosis in human HCT15 cells assessed as increase in caspase-3 protein expression at 4 to 10 uM after 24 hrs by Western blot analysis; assay type: functional, cell-based
# HCT-15 [22] = test: Induction of DNA damage in human HCT15 cells assessed as tail length at 4 uM by neutral comet assay (reference value: 4 pixel); assay type: functional
# HCT-15 [23] = test: Induction of DNA damage in human HCT15 cells assessed as tail moment at 10 uM by neutral comet assay (reference value: 0.02); assay type: functional
# HCT-15 [24] = test: Induction of DNA damage in human HCT15 cells assessed as comet length at 10 uM by neutral comet assay (reference value: 57 pixel); assay type: functional
# HCT-15 [25] = test: Induction of cell cycle arrest in human HCT15 cells assessed as accumulation of cells at S phase at 10 uM after 24 hrs by propidium iodide staining based flow cytometry (reference value: 8.73%); assay type: functional
# HCT-15 [26] = test: Antiproliferative activity against human HCT15 cells assessed as reduction in cell viability after 24 hrs by MTT assay; assay type: functional, cell-based
# HCT-15 [27] = test: Induction of apoptosis in human HCT15 cells assessed as increase in caspase-9 protein expression at 4 to 10 uM after 24 hrs by Western blot analysis; assay type: functional, cell-based
# HCT-15 [28] = test: Induction of nuclear morphological changes in human HCT15 cells assessed as increase in propidium iodide positive cells at 4 to 10 uM after 24 hrs by PI-staining based fluorescence microscopic analysis; assay type: functional, cell-based
# HCT-15 [29] = test: Induction of DNA damage in human HCT15 cells assessed as head length at 10 uM by neutral comet assay (reference value: 53 pixel); assay type: functional
# HCT-15 [30] = test: Downregulation of cyclin B1 expression in human HCT15 cells at 4 to 10 uM after 24 hrs by Western blot anlaysis; assay type: functional, cell-based
# HCT-15 [31] = test: Induction of cell cycle arrest in human HCT15 cells assessed as accumulation of cells at G0/G1 phase at 4 uM after 24 hrs by propidium iodide staining based flow cytometry (reference value: 77.48%); assay type: functional
# HCT-15 [32] = test: Induction of cell cycle arrest in human HCT15 cells assessed as accumulation of cells at G0/G1 phase at 10 uM after 24 hrs by propidium iodide staining based flow cytometry (reference value: 77.48%); assay type: functional
# HCT-15 [33] = test: Induction of DNA damage in human HCT15 cells assessed as tail DNA at 10 uM by neutral comet assay relative to control (reference value: 0.72%); assay type: functional
# HCT-15 [34] = test: Induction of DNA damage in human HCT15 cells assessed as tail length at 10 uM by neutral comet assay (reference value: 4 pixel); assay type: functional
# HCT-15 [35] = test: Induction of cell cycle arrest in human HCT15 cells assessed as accumulation of cells at G2/M phase at 10 uM after 24 hrs by propidium iodide staining based flow cytometry (reference value: 13.77%); assay type: functional
# HCT-15 [36] = test: Induction of apoptosis in human HCT15 cells assessed as early apoptotic cells at 4 uM after 24 hrs by annexin V-FITC and propidium iodide staining based flow cytometry (reference value: 0%); assay type: functional
# HCT-15 [37] = test: Downregulation of cyclin D1 expression in human HCT15 cells at 4 to 10 uM after 24 hrs by Western blot anlaysis; assay type: functional, cell-based
# HCT-15 [38] = test: Induction of DNA damage in human HCT15 cells assessed as head DNA at 4 uM by neutral comet assay relative to control (reference value: 99.27%); assay type: functional
# HCT-15 [39] = test: Induction of apoptosis in human HCT15 cells assessed as necrotic cells at 10 uM after 24 hrs by annexin V-FITC and propidium iodide staining based flow cytometry (reference value: 0.07%); assay type: functional
# HCT-15 [40] = test: Induction of apoptosis in human HCT15 cells assessed as reduction in bcl-2 protein expression at 4 to 10 uM after 24 hrs by Western blot analysis; assay type: functional, cell-based
# HCT-15 [41] = test: Induction of morphological changes in human HCT15 cells assessed as membrane blebbing at 4 to 10 uM after 24 hrs by inverted light microscopic analysis; assay type: functional, cell-based
# HCT-15 [42] = test: Induction of DNA damage in human HCT15 cells assessed as tail DNA at 4 uM by neutral comet assay relative to control (reference value: 0.72%); assay type: functional
# HCT-15 [43] = test: Induction of DNA damage in human HCT15 cells assessed as comet length at 4 uM by neutral comet assay (reference value: 57 pixel); assay type: functional
# HCT-15 [44] = test: Induction of morphological changes in human HCT15 cells assessed as formation of spherical bodies at 4 to 10 uM after 24 hrs by inverted light microscopic analysis; assay type: functional, cell-based
structure (smiles),measurement,setting,value
C[C@H]1C(=O)O[C@H]2C[C@]1(C)OC[C@H]2[C@H]1CC[C@H]2[C@@H]3CC=C4CC=CC(=O)[C@]4(C)[C@H]3CC[C@]12C,viability at 4 µM,HCT-15 [1],21.9%
same,Activity,HCT-15 [2],Active
same,Activity,HCT-15 [3],58.17%
same,Activity,HCT-15 [4],8.56
same,Activity,HCT-15 [5],19.48%
same,inhibition at 4 µM,HCT-15 [6],50.7%
same,Activity,HCT-15 [7],Dose-dependent effect
same,Activity,HCT-15 [8],2.1%
same,Activity,HCT-15 [9],34.54%
same,Activity,HCT-15 [10],19.67%
same,Activity,HCT-15 [11],Active
same,Activity,HCT-15 [12],Active
same,viability at 10 µM,HCT-15 [13],14.7%
same,Activity,HCT-15 [14],23 pixel
same,Activity,HCT-15 [15],5.43
same,Activity,HCT-15 [16],Dose-dependent effect
same,Activity,HCT-15 [17],Dose-dependent effect
same,Activity,HCT-15 [18],63.26%
same,Activity,HCT-15 [19],5.56
same,Activity,HCT-15 [20],13.34%
same,Activity,HCT-15 [21],Active
same,Activity,HCT-15 [22],12 pixel
same,Activity,HCT-15 [23],11.12
same,Activity,HCT-15 [24],36 pixel
same,Activity,HCT-15 [25],16.46%
same,inhibition,HCT-15 [26],Dose-dependent effect
same,IC50,"HCT-15 [26]; HCT-15, 24 h",4 µM
same,Activity,HCT-15 [27],Active
same,Activity,HCT-15 [28],Active
same,Activity,HCT-15 [29],19 pixel
same,inhibition,HCT-15 [30],Active
same,Activity,HCT-15 [31],66.97%
same,Activity,HCT-15 [32],61.24%
same,Activity,HCT-15 [33],65.45%
same,Activity,HCT-15 [34],17 pixel
same,Activity,HCT-15 [35],21.57%
same,Activity,HCT-15 [36],17.79%
same,inhibition,HCT-15 [37],Active
same,Activity,HCT-15 [38],54.72%
same,Activity,HCT-15 [39],2.57%
same,Activity,HCT-15 [40],Active
same,Activity,HCT-15 [41],Active
same,Activity,HCT-15 [42],45.27%
same,Activity,HCT-15 [43],35 pixel
same,Activity,HCT-15 [44],Active
